Test results: patent US8192962B2, “Processes for detecting toxic substances” (Daikin Industries, Ltd., priority 2001, dated 2012)

System: Genes belonging to other category
Experiment: DNA chip mRNA expression in yeast, genes belonging to other category (Table 9)
Format: cell-based, Saccharomyces cerevisiae S288C
Method in brief: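 Measured as treated-to-untreated fluorescence ratio on a full-genome yeast DNA chip. Cells (S288C, YPD, 25° C.) were exposed in log phase for two hours to one chemical, dosed to curb growth without killing.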

C=CC=O [(14), acrolein]
The level of expressed mRNA in the presence of chemical substance/The level of expressed mRNA in the absence of chemical substance (yeast gene YMR104C): 1.1
The level of expressed mRNA in the presence of chemical substance/The level of expressed mRNA in the absence of chemical substance (yeast gene YMR219W): 0.5
The level of expressed mRNA in the presence of chemical substance/The level of expressed mRNA in the absence of chemical substance (yeast gene YMR226C): 1.6
The level of expressed mRNA in the presence of chemical substance/The level of expressed mRNA in the absence of chemical substance (yeast gene YMR262W): 0.9
The level of expressed mRNA in the presence of chemical substance/The level of expressed mRNA in the absence of chemical substance (yeast gene YMR275C): 0.8
The level of expressed mRNA in the presence of chemical substance/The level of expressed mRNA in the absence of chemical substance (yeast gene YMR276W): 1.2
The level of expressed mRNA in the presence of chemical substance/The level of expressed mRNA in the absence of chemical substance (yeast gene YMR314W): 1.0
The level of expressed mRNA in the presence of chemical substance/The level of expressed mRNA in the absence of chemical substance (yeast gene YNL006W): 0.8
The level of expressed mRNA in the presence of chemical substance/The level of expressed mRNA in the absence of chemical substance (yeast gene YNL007C): 0.4
The level of expressed mRNA in the presence of chemical substance/The level of expressed mRNA in the absence of chemical substance (yeast gene YNL093W): 1.1
The level of expressed mRNA in the presence of chemical substance/The level of expressed mRNA in the absence of chemical substance (yeast gene YNL333W): 1.9
The level of expressed mRNA in the presence of chemical substance/The level of expressed mRNA in the absence of chemical substance (yeast gene YNR007C): 1.5
The level of expressed mRNA in the presence of chemical substance/The level of expressed mRNA in the absence of chemical substance (yeast gene YNR010W): 1.3
The level of expressed mRNA in the presence of chemical substance/The level of expressed mRNA in the absence of chemical substance (yeast gene YNR069C): 2.1
The level of expressed mRNA in the presence of chemical substance/The level of expressed mRNA in the absence of chemical substance (yeast gene YOL013C): 0.9
The level of expressed mRNA in the presence of chemical substance/The level of expressed mRNA in the absence of chemical substance (yeast gene YOL038W): 2.1
The level of expressed mRNA in the presence of chemical substance/The level of expressed mRNA in the absence of chemical substance (yeast gene YOL109W): 1.4
The level of expressed mRNA in the presence of chemical substance/The level of expressed mRNA in the absence of chemical substance (yeast gene YOL164W): 1.3
The level of expressed mRNA in the presence of chemical substance/The level of expressed mRNA in the absence of chemical substance (yeast gene YOR036W): 1.2
The level of expressed mRNA in the presence of chemical substance/The level of expressed mRNA in the absence of chemical substance (yeast gene YOR117W): 1.0
The level of expressed mRNA in the presence of chemical substance/The level of expressed mRNA in the absence of chemical substance (yeast gene YOR124C): 0.8
The level of expressed mRNA in the presence of chemical substance/The level of expressed mRNA in the absence of chemical substance (yeast gene YOR132W): 0.7
The level of expressed mRNA in the presence of chemical substance/The level of expressed mRNA in the absence of chemical substance (yeast gene YOR157C): 2.2
The level of expressed mRNA in the presence of chemical substance/The level of expressed mRNA in the absence of chemical substance (yeast gene YOR181W): 0.9
The level of expressed mRNA in the presence of chemical substance/The level of expressed mRNA in the absence of chemical substance (yeast gene YOR185C): 2.1
The level of expressed mRNA in the presence of chemical substance/The level of expressed mRNA in the absence of chemical substance (yeast gene YOR198C): 1.1
The level of expressed mRNA in the presence of chemical substance/The level of expressed mRNA in the absence of chemical substance (yeast gene YOR229W): 1.0
The level of expressed mRNA in the presence of chemical substance/The level of expressed mRNA in the absence of chemical substance (yeast gene YOR257W): 1.5
The level of expressed mRNA in the presence of chemical substance/The level of expressed mRNA in the absence of chemical substance (yeast gene YOR259C): 1.2
The level of expressed mRNA in the presence of chemical substance/The level of expressed mRNA in the absence of chemical substance (yeast gene YOR261C): 1.8
The level of expressed mRNA in the presence of chemical substance/The level of expressed mRNA in the absence of chemical substance (yeast gene YOR265W): 2.5
The level of expressed mRNA in the presence of chemical substance/The level of expressed mRNA in the absence of chemical substance (yeast gene YOR288C): 0.8
The level of expressed mRNA in the presence of chemical substance/The level of expressed mRNA in the absence of chemical substance (yeast gene YOR298W): 2.1
The level of expressed mRNA in the presence of chemical substance/The level of expressed mRNA in the absence of chemical substance (yeast gene YOR327C): 1.5
The level of expressed mRNA in the presence of chemical substance/The level of expressed mRNA in the absence of chemical substance (yeast gene YOR355W): 0.6
The level of expressed mRNA in the presence of chemical substance/The level of expressed mRNA in the absence of chemical substance (yeast gene YOR362C): 1.4
The level of expressed mRNA in the presence of chemical substance/The level of expressed mRNA in the absence of chemical substance (yeast gene YOR367W): 1.5
The level of expressed mRNA in the presence of chemical substance/The level of expressed mRNA in the absence of chemical substance (yeast gene YOR383C): 0.6
The level of expressed mRNA in the presence of chemical substance/The level of expressed mRNA in the absence of chemical substance (yeast gene YPL089C): 0.8
The level of expressed mRNA in the presence of chemical substance/The level of expressed mRNA in the absence of chemical substance (yeast gene YPL109C): 1.3
The level of expressed mRNA in the presence of chemical substance/The level of expressed mRNA in the absence of chemical substance (yeast gene YPL149W): 1.0
The level of expressed mRNA in the presence of chemical substance/The level of expressed mRNA in the absence of chemical substance (yeast gene YPL154C): 0.8
The level of expressed mRNA in the presence of chemical substance/The level of expressed mRNA in the absence of chemical substance (yeast gene YPL218W): 1.5
The level of expressed mRNA in the presence of chemical substance/The level of expressed mRNA in the absence of chemical substance (yeast gene YPR015C): 1.5
The level of expressed mRNA in the presence of chemical substance/The level of expressed mRNA in the absence of chemical substance (yeast gene YPR073C): 1.5
The level of expressed mRNA in the presence of chemical substance/The level of expressed mRNA in the absence of chemical substance (yeast gene YPR103W): 1.8
The level of expressed mRNA in the presence of chemical substance/The level of expressed mRNA in the absence of chemical substance (yeast gene YPR108W): 1.0
The level of expressed mRNA in the presence of chemical substance/The level of expressed mRNA in the absence of chemical substance (yeast gene YPR185W): 1.0
